Data set [1] has as its target human adenosine A2A receptors (Homo sapiens, UniProt P29274). The data set is described as follows: Binding affinities at hA2A receptors, displacement of [3H]-CGS 21680. To be noted: displacement of radioligand [3H]-CGS 21680, in vitro. Background: Displacement assays read how much labelled ligand stays bound in the presence of the test substance.
The subject of a further data set is adenosine A2A receptor. Conditions: cited from earlier work.
For data set [2] the following is noted: cited from earlier work.

Molecules are shown by their SMILES.

human adenosine A2A receptors, sequence (P29274 whole entry): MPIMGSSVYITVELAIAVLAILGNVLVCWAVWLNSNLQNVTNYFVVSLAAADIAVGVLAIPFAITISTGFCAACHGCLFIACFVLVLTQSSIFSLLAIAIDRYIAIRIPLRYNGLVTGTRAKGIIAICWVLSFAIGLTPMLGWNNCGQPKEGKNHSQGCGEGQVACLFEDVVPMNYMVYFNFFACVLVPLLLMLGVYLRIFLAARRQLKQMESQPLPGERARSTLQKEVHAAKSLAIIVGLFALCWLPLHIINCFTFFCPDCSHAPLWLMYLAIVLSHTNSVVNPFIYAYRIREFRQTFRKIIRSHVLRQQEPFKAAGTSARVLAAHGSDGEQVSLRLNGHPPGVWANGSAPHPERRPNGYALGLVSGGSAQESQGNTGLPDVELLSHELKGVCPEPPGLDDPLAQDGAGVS

As for `CN(C)c1nc(-c2ccco2)c2cc[nH]c2n1` [Example 1, N,N-dimethyl-4-(2-furyl)-1H-pyrrolo[2,3-d]pyrimidine-2-amine], the melting point (as a rule, the temperature, or range, at which the solid turns liquid) was in the range of 196.9 to 197.1 °C. Besides, the Ki (as a rule, the equilibrium dissociation constant of an inhibitor or competing ligand from its target) in data set [1] amounted to 60 nM.

The compound `Clc1nc(-c2ccco2)c2cc[nH]c2n1` [Example 2, 2-chloro-4-(2-furyl)-1H-pyrrolo[2,3-d]pyrimidine] gave a melting point of 265.8 to 266.3 °C. On the same count and under the same terms, the result for `CN(C)c1nc(-c2ccco2)c2ccn(Cc3ccccc3)c2n1` [Example 3, 7-benzyl-N,N-dimethyl-4-(2-furyl)-7H-pyrrolo[2,3-d]pyrimidine-2-amine] reads 91.7 to 92.3 °C. On the same count and under the same terms, the result for `CN(C)c1nc(-c2ccco2)c2ccn(C(=O)c3ccccc3)c2n1` [Example 5, 7-benzoyl-N,N-dimethyl-4-(2-furyl)-7H-pyrrolo[2,3-d]pyrimidine-2-amine] reads 108.3 to 109.1 °C. On the same count and under the same terms, the result for `OC[C@H]1CCCN1c1nc(-c2ccco2)c2cc[nH]c2n1` [Example 6, (2R)-2-(2-hydroxymethylpyrrolidin-1-yl)-4-(2-furyl)-1H-pyrrolo[2,3-d]pyrimidine] reads 174.8 to 175.6 °C.

Regarding `COc1ccc(CNc2nc(-c3ccco3)c3cc[nH]c3n2)cc1OC` [Example 7, N-(3,4-dimethoxybenzyl)-4-(2-furyl)-1H-pyrrolo[2,3-d]pyrimidine-2-amine], the melting point lay in the range of 154.8 to 154.9 °C. Compound `Nc1nc(-c2ccco2)c2cc[nH]c2n1` [Example 8, 4-(2-furyl)-1H-pyrrolo[2,3-d]pyrimidine-2-amine] showed a Ki in data set [1] of 272 nM.

Regarding `CN(C)c1nc(-c2ccco2)c2ccn(Cc3ccccc3F)c2n1` [Example 11, N,N-dimethyl-7-(2-fluorobenzyl)-4-(2-furyl)-7H-pyrrolo[2,3-d]pyrimidine-2-amine], the melting point lay in the range of 115.1 to 115.2 °C. For `Nc1nc(-c2ccco2)c2ccn(Cc3ccccc3F)c2n1` [Example 13, 7-(2-fluorobenzyl)-4-(2-furyl)-7H-pyrrolo[2,3-d]pyrimidine-2-amine], the affinity in data set [1] corresponds to a Ki of 16 nM. As for `CCCn1c(=O)c2c(nc(/C=C/c3ccc(OC)c(OC)c3)n2C)n(CCC)c1=O` [KF 17837, (E)-8-(3,4-dimethoxystyryl)-1,3-dipropyl-7-methylxanthine], in the data set on adenosine A2A receptor (combination with L-DOPA plus benserazide), the “anticataleptic effects of a subthreshold dose of L-DOPA plus benserazide” value is on record as “potentiated”. The “catalepsy induced by haloperidol and reserpine” value in the data set on adenosine A2A receptor (in vivo) is on record as “reduced”. Besides, the “cataleptic responses induced by intracerebroventricular CGS 21680” value in the data set on adenosine A2A receptor (oral administration) is recorded as “significantly ameliorated”. As to `Cn1c(=O)c2[nH]cnc2n(C)c1=O` [Theophylline, 1,3-dimethylxanthine], the “mean objective disability scores” value in data set [2] (150 mg/day oral, up to 12 weeks, 15 Parkinsonian patients) is “significant improvements”. Also, the “patients reporting moderate or marked subjective improvement” value in data set [2] (of 15 Parkinsonian patients, 150 mg/day oral, up to 12 weeks) is reported as 11. Also, the serum theophylline levels in data set [2] (slow release oral preparation 150 mg/day, after one week, 15 Parkinsonian patients) is on record as 4.44 mg/L.

(Values after patent US7098333B2, “Pyrrolo[2,3-d]pyrimidine and their use as purinergic receptor antagonists” (Vernalis Research Limited, priority 2001, dated 2006).)
